Reference: patent publication US10570123B2 (SURFACE LOGIX, LLC, priority 2005, dated 2020)

How the values were obtained:
PKC = test: Inhibition of PKC (FIG. 10 comparison); format: biochemical; details: FIG. 10 legend, qualitative
ROCK2 = ROCK2 (Homo sapiens (Human), UniProt O75116); test: Inhibition of ROCK2; format: biochemical; details: FIG. 10 legend, qualitative
Description: Methods of determining kinase inhibition are well known in the art. For example, kinase activity of an enzyme and the inhibitory capacity of a test compound can be determined by measuring enzyme specific phosphorylation of a substrate. Commercial assays and kits can be employed. For example, kinase inhibition can be determined using an IMAP® assay (Molecular Devices). This assay method involves the use of a fluorescently-tagged peptide substrate. Phosphorylation of the tagged peptide by a kinase of interest promotes binding of the peptide to a trivalent metal-based nanoparticle via the specific, high affinity interaction between the phospho-group and the trivalent metal. Proximity to the nanoparticle results in increased fluorescence polarization. Inhibition of the kinase by a kinase inhibitor prevents phosphorylation of the substrate and thereby limits binding of the fluorescently-tagged substrate to the nanoparticle. […]
ROCK-II inhibitory activity can be measured using the ROCK-II Assay Kit (Molecular Devices, inc.; Sunnyvale, Calif.).
Inhibition of ROCK2 by various compounds was determined.
Inhibitory activity for Rho kinase was determined for examples of compounds of the present invention. […] For each of these compounds their inhibitory activity for both ROCK 1 and ROCK 2 was determined. […]

Sequence of ROCK2 (O75116 whole entry, species assumed): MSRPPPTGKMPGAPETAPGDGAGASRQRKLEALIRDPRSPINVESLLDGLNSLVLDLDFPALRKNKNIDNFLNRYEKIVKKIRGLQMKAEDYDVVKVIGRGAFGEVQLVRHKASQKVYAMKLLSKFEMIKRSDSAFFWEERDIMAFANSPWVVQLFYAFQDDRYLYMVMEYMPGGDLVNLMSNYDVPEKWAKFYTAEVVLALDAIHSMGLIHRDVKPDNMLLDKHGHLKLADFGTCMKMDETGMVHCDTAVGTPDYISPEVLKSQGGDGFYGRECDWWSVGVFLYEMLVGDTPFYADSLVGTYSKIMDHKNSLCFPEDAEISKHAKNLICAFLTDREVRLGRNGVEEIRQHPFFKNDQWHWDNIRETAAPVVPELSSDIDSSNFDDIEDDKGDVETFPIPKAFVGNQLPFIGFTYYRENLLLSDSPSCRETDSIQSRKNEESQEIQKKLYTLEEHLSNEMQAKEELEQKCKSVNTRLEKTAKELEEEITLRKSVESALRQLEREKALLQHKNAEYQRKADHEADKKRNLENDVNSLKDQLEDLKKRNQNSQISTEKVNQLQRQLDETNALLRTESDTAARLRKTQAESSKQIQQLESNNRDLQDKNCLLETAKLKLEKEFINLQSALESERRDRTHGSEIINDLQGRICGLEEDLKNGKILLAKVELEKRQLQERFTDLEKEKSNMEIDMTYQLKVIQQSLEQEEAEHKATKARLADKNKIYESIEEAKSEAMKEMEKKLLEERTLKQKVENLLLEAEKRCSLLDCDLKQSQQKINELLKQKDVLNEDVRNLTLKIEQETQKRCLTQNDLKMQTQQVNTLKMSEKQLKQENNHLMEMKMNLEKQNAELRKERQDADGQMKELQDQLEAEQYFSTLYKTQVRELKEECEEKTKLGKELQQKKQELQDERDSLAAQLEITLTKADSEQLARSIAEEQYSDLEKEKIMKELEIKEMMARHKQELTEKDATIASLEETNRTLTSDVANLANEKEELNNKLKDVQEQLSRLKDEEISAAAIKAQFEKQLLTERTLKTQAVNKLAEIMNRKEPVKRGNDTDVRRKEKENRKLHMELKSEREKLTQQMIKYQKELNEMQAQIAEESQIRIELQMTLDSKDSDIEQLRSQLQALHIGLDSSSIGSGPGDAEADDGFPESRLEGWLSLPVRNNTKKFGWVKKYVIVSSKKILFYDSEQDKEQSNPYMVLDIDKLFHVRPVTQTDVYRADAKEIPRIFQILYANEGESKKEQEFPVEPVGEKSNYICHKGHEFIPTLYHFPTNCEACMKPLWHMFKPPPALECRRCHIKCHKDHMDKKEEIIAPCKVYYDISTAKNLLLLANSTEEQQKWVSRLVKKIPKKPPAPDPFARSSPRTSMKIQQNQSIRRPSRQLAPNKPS

SMILES	inhibition of PKC (FIG. 10) (PKC)	inhibition of ROCK2 (FIG. 10) (ROCK2)
C[C@@H](N)[C@H]1CC[C@H](C(=O)Nc2ccncc2)CC1 [Example Y27632]	inhibits	inhibits
CC(C)NC(=O)COc1cccc(-c2nc(Nc3ccc4[nH]ncc4c3)c3ccccc3n2)c1 [Example 82, 2-(3-(4-(1H-indazol-5-ylamino)quinazolin-2-yl)phenoxy)-N-isopropylacetamide]		specific inhibition of ROCK2
